Read-outs that look alike come from different tables or passages of the source.
What was measured:
Plasma PK in dog = type: in vivo
Excerpt: (§1) Tables 7a and 7b summarize, among other things, the observed plasma PK properties in animals, for Compound 1: […]

5-HT1A = target: T1, 5-HT1A (Homo sapiens, UniProt P08908); experiment: 5-HT receptor activity (Table 3), 5-HT1A; type: cell-based
T1 sequence (P08908 1-422): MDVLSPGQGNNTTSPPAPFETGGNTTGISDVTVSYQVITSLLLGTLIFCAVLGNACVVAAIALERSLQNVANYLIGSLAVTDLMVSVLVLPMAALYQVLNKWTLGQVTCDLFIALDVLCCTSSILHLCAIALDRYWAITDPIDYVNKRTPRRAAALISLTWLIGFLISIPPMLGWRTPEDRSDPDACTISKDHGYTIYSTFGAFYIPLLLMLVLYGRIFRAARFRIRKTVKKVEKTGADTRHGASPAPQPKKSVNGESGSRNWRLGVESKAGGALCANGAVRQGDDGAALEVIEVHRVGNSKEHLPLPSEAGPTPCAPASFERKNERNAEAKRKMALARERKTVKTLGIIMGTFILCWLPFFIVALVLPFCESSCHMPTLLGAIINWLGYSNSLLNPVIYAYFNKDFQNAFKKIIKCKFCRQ

5-HT1D = 5-HT1D (Homo sapiens, UniProt P28221); experiment: 5-HT receptor activity (Table 3), 5-HT1D; type: cell-based
Chain of 5-HT1D (P28221 whole entry, species assumed): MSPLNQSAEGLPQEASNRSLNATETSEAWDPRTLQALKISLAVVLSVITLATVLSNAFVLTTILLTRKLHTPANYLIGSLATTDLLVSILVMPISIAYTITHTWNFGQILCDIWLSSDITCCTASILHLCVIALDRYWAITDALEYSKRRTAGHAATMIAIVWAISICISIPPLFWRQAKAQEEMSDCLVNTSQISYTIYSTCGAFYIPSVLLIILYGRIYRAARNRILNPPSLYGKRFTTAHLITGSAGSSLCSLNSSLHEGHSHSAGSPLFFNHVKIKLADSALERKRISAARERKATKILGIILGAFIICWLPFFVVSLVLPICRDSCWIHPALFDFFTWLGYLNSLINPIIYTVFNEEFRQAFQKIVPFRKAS

5-HT6 = 5-HT6 (Homo sapiens, UniProt P50406); experiment: 5-HT receptor activity (Table 3), 5-HT6; type: cell-based
Chain of 5-HT6 (P50406 whole entry, species assumed): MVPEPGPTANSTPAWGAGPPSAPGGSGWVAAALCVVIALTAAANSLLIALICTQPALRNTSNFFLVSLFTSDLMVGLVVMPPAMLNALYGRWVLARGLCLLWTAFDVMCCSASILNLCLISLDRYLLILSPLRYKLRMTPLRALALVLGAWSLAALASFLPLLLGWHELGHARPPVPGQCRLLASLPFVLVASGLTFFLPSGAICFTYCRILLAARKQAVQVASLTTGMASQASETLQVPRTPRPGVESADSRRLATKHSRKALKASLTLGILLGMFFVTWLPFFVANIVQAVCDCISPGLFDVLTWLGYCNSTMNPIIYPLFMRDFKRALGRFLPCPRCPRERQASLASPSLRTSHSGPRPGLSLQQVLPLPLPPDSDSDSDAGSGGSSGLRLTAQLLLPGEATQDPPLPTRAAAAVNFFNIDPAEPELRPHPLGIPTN

5-HT2A [1] = target: T2, 5-HT2A (Homo sapiens, UniProt P28223); experiment: 5-HT2A Gq dissociation BRET functional assay; type: cell-based; parameters: expressed in transfected cells; host or cells: HEK293T
T2 sequence (P28223 whole entry): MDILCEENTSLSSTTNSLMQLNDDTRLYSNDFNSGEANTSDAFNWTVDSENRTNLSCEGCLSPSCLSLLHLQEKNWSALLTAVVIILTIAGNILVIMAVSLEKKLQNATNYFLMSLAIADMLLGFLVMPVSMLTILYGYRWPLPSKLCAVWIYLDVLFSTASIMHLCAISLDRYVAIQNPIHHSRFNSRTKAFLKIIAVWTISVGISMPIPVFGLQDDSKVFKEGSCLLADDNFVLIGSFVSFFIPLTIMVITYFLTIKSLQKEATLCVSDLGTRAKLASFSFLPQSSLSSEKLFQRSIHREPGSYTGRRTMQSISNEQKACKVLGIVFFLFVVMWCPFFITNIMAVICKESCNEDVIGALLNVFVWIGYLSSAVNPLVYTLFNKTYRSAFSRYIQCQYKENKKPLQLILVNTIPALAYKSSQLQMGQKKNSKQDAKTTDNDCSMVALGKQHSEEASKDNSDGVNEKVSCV

hepatocyte [2] = experiment: In vitro hepatocyte clearance, rat; type: in vitro ADME; details: Rat
Protocol: (§2) Additional experimentation was performed on compounds 1, W5, and A93. Table 6a, 6b and 6c summarize, among other things, the anticipated hepatic clearance of compounds 1, W5 and A93 respectively, in various species, as specified in Table 6a, 6b and 6c and as determined by calculating the in vitro hepatocyte clearance over time and scaling such rate with such species' hepatocyte count and the anticipated liver blood flow rate in such species.

[3] = In vitro hepatocyte clearance, rat; type: in vitro ADME
Protocol: as §2

5-HT1E = 5-HT1E (Homo sapiens, UniProt P28566); experiment: 5-HT receptor activity (Table 3), 5-HT1E; type: cell-based
Chain of 5-HT1E (P28566 whole entry, species assumed): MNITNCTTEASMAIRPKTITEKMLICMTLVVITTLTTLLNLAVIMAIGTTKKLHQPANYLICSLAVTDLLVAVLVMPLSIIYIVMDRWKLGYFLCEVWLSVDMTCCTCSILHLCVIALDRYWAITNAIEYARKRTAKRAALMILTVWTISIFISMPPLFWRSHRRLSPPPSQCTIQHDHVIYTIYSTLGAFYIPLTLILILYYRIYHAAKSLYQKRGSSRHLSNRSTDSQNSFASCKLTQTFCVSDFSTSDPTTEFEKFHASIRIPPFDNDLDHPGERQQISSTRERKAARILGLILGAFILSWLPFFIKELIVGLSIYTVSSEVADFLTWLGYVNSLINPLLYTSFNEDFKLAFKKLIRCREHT

5-HT1B = 5-HT1B (Homo sapiens, UniProt P28222); experiment: 5-HT receptor activity (Table 3), 5-HT1B; type: cell-based
Chain of 5-HT1B (P28222 whole entry, species assumed): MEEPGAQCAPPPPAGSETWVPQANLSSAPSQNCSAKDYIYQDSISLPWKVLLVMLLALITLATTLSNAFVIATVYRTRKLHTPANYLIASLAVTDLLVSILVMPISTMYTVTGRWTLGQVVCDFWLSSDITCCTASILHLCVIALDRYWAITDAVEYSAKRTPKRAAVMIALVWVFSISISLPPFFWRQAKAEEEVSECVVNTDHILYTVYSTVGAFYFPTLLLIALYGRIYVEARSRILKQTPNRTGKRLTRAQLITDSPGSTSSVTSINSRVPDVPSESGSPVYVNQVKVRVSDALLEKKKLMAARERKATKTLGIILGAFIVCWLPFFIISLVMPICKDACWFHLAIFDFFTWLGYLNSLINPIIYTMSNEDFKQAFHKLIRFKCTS

5-HT2B [4] = target: T3, 5-HT2B (Homo sapiens, UniProt P41595); experiment: 5-HT2B Gq dissociation BRET functional assay; type: cell-based; parameters: expressed in transfected cells; host or cells: HEK293T
Target sequence in this assay (P41595 whole entry): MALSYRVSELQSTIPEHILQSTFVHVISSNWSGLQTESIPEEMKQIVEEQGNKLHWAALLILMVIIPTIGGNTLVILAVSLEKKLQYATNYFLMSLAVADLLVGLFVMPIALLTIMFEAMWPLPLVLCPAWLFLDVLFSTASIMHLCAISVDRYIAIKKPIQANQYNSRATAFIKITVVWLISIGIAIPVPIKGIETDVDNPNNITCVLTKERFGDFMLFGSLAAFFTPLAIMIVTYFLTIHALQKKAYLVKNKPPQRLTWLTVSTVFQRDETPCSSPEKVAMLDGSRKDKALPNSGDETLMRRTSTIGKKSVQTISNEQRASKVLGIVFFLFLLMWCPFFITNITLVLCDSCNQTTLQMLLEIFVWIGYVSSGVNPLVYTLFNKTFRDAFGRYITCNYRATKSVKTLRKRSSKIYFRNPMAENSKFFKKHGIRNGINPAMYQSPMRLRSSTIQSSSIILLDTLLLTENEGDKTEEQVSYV

5-HT2A [5] = target: T2, 5-HT2A; experiment: 5-HT receptor activity (Table 3), 5-HT2A; type: cell-based
5-HT5A = 5-HT5A (Homo sapiens, UniProt P47898); experiment: 5-HT receptor activity (Table 3), 5-HT5A; type: cell-based
Chain of 5-HT5A (P47898 whole entry, species assumed): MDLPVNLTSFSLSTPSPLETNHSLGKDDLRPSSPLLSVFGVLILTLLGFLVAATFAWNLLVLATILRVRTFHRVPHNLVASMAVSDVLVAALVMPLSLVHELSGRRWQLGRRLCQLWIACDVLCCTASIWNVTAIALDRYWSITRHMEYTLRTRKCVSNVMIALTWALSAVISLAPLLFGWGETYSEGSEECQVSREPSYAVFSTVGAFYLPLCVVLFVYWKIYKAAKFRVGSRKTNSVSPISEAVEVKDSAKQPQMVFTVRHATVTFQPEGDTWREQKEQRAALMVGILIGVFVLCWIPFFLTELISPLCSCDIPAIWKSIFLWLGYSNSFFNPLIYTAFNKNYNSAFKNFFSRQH

5-HT4 = 5-HT4 (Homo sapiens, UniProt Q13639); experiment: 5-HT receptor activity (Table 3), 5-HT4; type: cell-based
Chain of 5-HT4 (Q13639 whole entry, species assumed): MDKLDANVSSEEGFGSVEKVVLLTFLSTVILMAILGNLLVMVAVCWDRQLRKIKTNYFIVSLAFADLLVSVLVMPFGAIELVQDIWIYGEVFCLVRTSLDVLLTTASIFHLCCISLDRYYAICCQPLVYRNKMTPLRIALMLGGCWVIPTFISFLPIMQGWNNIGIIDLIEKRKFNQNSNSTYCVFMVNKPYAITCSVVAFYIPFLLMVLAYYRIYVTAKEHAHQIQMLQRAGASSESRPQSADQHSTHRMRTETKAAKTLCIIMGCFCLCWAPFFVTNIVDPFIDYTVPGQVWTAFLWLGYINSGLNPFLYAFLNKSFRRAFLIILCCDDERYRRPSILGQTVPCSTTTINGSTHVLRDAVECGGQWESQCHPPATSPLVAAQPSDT

5-HT2B [6] = target: T3, 5-HT2B; experiment: 5-HT receptor activity (Table 3), 5-HT2B; type: cell-based
Target sequence in this assay (P41595 whole entry, species assumed): as the sequence (P41595 whole entry) above

Plasma PK in rat = type: in vivo
Excerpt: as §1

hepatocyte [7] = experiment: In vitro hepatocyte clearance, dog; type: in vitro ADME; details: Dog
Protocol: as §2

[8] = In vitro hepatocyte clearance, dog; type: in vitro ADME
Protocol: as §2

[9] = normalized to % 5-HT stimulation

Question: Which AUC(0-t) (Plasma PK in dog; IV, 2 mg/kg) does the source give for `Cc1ccc(O)c2c3c([nH]c12)CCNCC3` [Cpd #1 (Pharm-136), 7-Methyl-1,2,3,4,5,6-hexahydroazepino[4,5-b]indol-10-ol] here?
Answer: 1200 ng·h/mL

Question: And the half-life (Plasma PK in dog; IV, 2 mg/kg)?
Answer: 170 min

Question: What about the clearance (Plasma PK in dog; IV, 2 mg/kg, read-out: Cltot (converted)) of the same compound?
Answer: 24.6 mL/min/kg

Question: What about the Vd (Plasma PK in dog; IV, 2 mg/kg, read-out: Vss) of the same compound?
Answer: 5.15 L/kg

Question: And the AUC(0-t) (Plasma PK in dog; PO, 10 mg/kg)?
Answer: 5460 ng·h/mL

Question: And the Vz_F (Plasma PK in dog; PO, 10 mg/kg)?
Answer: 7648 mL/kg

Question: And the half-life (Plasma PK in dog; PO, 10 mg/kg)?
Answer: 193 min

Question: And the EC50 (5-HT1A)?
Answer: 4 µM

Question: And the Eff (5-HT1A)?
Answer: 73%

Question: What about the “Count (n. of wells)” value (TA1537; TA1537 + S9, 1.0E−04M) of the same compound?
Answer: 0 n. of wells

Question: What about the Significance (TA1537; TA1537 + S9, 1.0E−04M) of the same compound?
Answer: Negative

Question: What about the “Count (n. of wells)” value (TA1537; TA1537 + S9, 1.0E−05M) of the same compound?
Answer: 1 n. of wells

Question: What about the Significance (TA1537; TA1537 + S9, 1.0E−05M) of the same compound?
Answer: Negative

Question: What about the “Count (n. of wells)” value (TA1537; TA1537 + S9, 5.0E−05M) of the same compound?
Answer: 0 n. of wells

Question: What about the Significance (TA1537; TA1537 + S9, 5.0E−05M) of the same compound?
Answer: Negative

Question: What about the “Count (n. of wells)” value (TA1537; TA1537 + S9, 5.0E−06M) of the same compound?
Answer: 2 n. of wells

Question: And the Significance (TA1537; TA1537 + S9, 5.0E−06M)?
Answer: Negative

Question: What about the “Count (n. of wells)” value (TA1537; TA1537 − S9, 1.0E−04M) of the same compound?
Answer: 0 n. of wells

Question: What about the Significance (TA1537; TA1537 − S9, 1.0E−04M) of the same compound?
Answer: Negative

Question: What about the “Count (n. of wells)” value (TA1537; TA1537 − S9, 1.0E−05M) of the same compound?
Answer: 1 n. of wells

Question: And the Significance (TA1537; TA1537 − S9, 1.0E−05M)?
Answer: Negative

Question: And the “Count (n. of wells)” value (TA1537; TA1537 − S9, 5.0E−05M)?
Answer: 0 n. of wells

Question: What about the Significance (TA1537; TA1537 − S9, 5.0E−05M) of the same compound?
Answer: Negative

Question: And the “Count (n. of wells)” value (TA1537; TA1537 − S9, 5.0E−06M)?
Answer: 0 n. of wells

Question: And the Significance (TA1537; TA1537 − S9, 5.0E−06M)?
Answer: Negative

Question: And the EC50 (5-HT1D)?
Answer: 326 nM

Question: And the Eff (5-HT1D)?
Answer: 72%

Question: And the “Count (n. of wells)” value (TA1535; TA1535 + S9, 1.0E−04M)?
Answer: 0 n. of wells

Question: What about the Significance (TA1535; TA1535 + S9, 1.0E−04M) of the same compound?
Answer: Negative

Question: And the “Count (n. of wells)” value (TA1535; TA1535 + S9, 1.0E−05M)?
Answer: 0 n. of wells

Question: And the Significance (TA1535; TA1535 + S9, 1.0E−05M)?
Answer: Negative

Question: What about the “Count (n. of wells)” value (TA1535; TA1535 + S9, 5.0E−05M) of the same compound?
Answer: 0 n. of wells

Question: And the Significance (TA1535; TA1535 + S9, 5.0E−05M)?
Answer: Negative

Question: What about the “Count (n. of wells)” value (TA1535; TA1535 + S9, 5.0E−06M) of the same compound?
Answer: 0 n. of wells

Question: And the Significance (TA1535; TA1535 + S9, 5.0E−06M)?
Answer: Negative

Question: What about the “Count (n. of wells)” value (TA1535; TA1535 − S9, 1.0E−04M) of the same compound?
Answer: 0 n. of wells

Question: What about the Significance (TA1535; TA1535 − S9, 1.0E−04M) of the same compound?
Answer: Negative

Question: And the “Count (n. of wells)” value (TA1535; TA1535 − S9, 1.0E−05M)?
Answer: 0 n. of wells

Question: And the Significance (TA1535; TA1535 − S9, 1.0E−05M)?
Answer: Negative

Question: And the “Count (n. of wells)” value (TA1535; TA1535 − S9, 5.0E−05M)?
Answer: 0 n. of wells

Question: What about the Significance (TA1535; TA1535 − S9, 5.0E−05M) of the same compound?
Answer: Negative

Question: And the “Count (n. of wells)” value (TA1535; TA1535 − S9, 5.0E−06M)?
Answer: 0 n. of wells

Question: What about the Significance (TA1535; TA1535 − S9, 5.0E−06M) of the same compound?
Answer: Negative

Question: And the EC50 (5-HT6)?
Answer: 53.2 nM

Question: And the Eff (5-HT6)?
Answer: 55%

Question: And the EC50 (5-HT2A [1])?
Answer: 0.6 nM

Question: What about the “5-HT2A BRET Eff” value (5-HT2A [1]; [9]) of the same compound?
Answer: 102%

Question: What about the “Hepatic Extraction Ratio (E)” value (hepatocyte [2]) of the same compound?
Answer: 0.32

Question: What about the “Predicted hepatic CL” value (hepatocyte [2]) of the same compound?
Answer: 17.41 mL/min/kg

Question: And the hepatocyte CLint ([3]; Rat hepatocytes)?
Answer: 5.43 µL/min/1e6 cells

Question: What about the half-life ([3]; Rat hepatocytes, read-out: In vitro T1/2) of the same compound?
Answer: 256 min

Question: What about the CLint scaled ([3]; rat, hepatocytes, read-out: Scale-up Clint) of the same compound?
Answer: 25.4 mL/min/kg

Question: What about the EC50 (5-HT1E) of the same compound?
Answer: 966 nM

Question: And the Eff (5-HT1E)?
Answer: 94%

Question: What about the EC50 (5-HT1B) of the same compound?
Answer: 327 nM

Question: And the Eff (5-HT1B)?
Answer: 74%

Question: And the EC50 (5-HT2B [4])?
Answer: 3.5 nM

Question: And the “5-HT2B BRET Eff” value (5-HT2B [4]; [9])?
Answer: 52%

Question: What about the EC50 (5-HT2A [5]) of the same compound?
Answer: 0.5 nM

Question: What about the Eff (5-HT2A [5]; 5-HT2A, Table 3) of the same compound?
Answer: 101%

Question: What about the EC50 (5-HT5A) of the same compound?
Answer: Not active

Question: And the EC50 (5-HT4)?
Answer: Not active

Question: What about the EC50 (5-HT2B [6]) of the same compound?
Answer: 4.2 nM

Question: What about the Eff (5-HT2B [6]; 5-HT2B, Table 3) of the same compound?
Answer: 50%

Question: What about the AUC(0-t) (Plasma PK in rat; IP, 10 mg/kg) of the same compound?
Answer: 193 ng·h/mL

Question: What about the Cl_F (Plasma PK in rat; IP, 10 mg/kg) of the same compound?
Answer: 816.02 mL/min/kg

Question: What about the Vz_F (Plasma PK in rat; IP, 10 mg/kg) of the same compound?
Answer: 225480 mL/kg

Question: And the half-life (Plasma PK in rat; IP, 10 mg/kg)?
Answer: 198 min

Question: And the AUC(0-t) (Plasma PK in rat; IV, 2.5 mg/kg)?
Answer: 37.5 ng·h/mL

Question: And the half-life (Plasma PK in rat; IV, 2.5 mg/kg)?
Answer: 236 min

Question: What about the clearance (Plasma PK in rat; IV, 2.5 mg/kg, read-out: Cltot (converted)) of the same compound?
Answer: 1070 mL/min/kg

Question: What about the Vd (Plasma PK in rat; IV, 2.5 mg/kg, read-out: Vss) of the same compound?
Answer: 0.204 L/kg

Question: And the “Hepatic Extraction Ratio (E)” value (hepatocyte [7])?
Answer: <0.38

Question: What about the “Predicted hepatic CL” value (hepatocyte [7]) of the same compound?
Answer: <11.62 mL/min/kg

Question: And the hepatocyte CLint ([8]; Dog hepatocytes)?
Answer: < 2.71 µL/min/1e6 cells

Question: What about the half-life ([8]; Dog hepatocytes, read-out: In vitro T1/2) of the same compound?
Answer: > 512 min

Question: What about the CLint scaled ([8]; dog, hepatocytes, read-out: Scale-up Clint) of the same compound?
Answer: < 18.6 mL/min/kg
